According to US6803232B1, “NPY-Y7 receptor gene” (The Garvan Institute of Medical Research, priority 1998, dated 2004):

Tested on: human NPY-Y7 receptors
Experiment: Competitive displacement of [125I]PYY on membranes of COSm6 cells transiently expressing human NPY-Y7 receptors
Type: binding
Conditions: for rank of potency for the Y7 receptor: inhibition of [125I]PYY (50 pM) binding, COSm6 membranes, single experiment, triplicate points
Experimental: The results were obtained through competitive displacement of [^125I]PYY on membranes of COSm6 cells transiently expressing human NPY-Y7 receptors. Membranes were incubated with [^125I]PYY (50 pM) and increasing concentrations of peptide competitors. Data are representative of a single experiment with each point measured in triplicate.
These experiments were conducted using COS-6 or HEX (293) cells transiently expressing recombinant Y7 receptor protein.
pcDNA3.1-hy7 cDNA was transiently transfected into the COSm6 cell line using FUGENE and […] of DNA/106 cells. The COSm6 cells were grown in Dulbecco's modified Eagles medium supplemented with 2 mM glutamine and 10% fetal calf serum, in 5% CO2 at 37° C. Membranes were harvested with COSm6 cells 72hr post-transfection. Adherent cells were washed twice in ice-cold phosphate buffered saline and lysed using a glass homogeniser in ice-cold hypotonic buffer (50 mM Tris-HCl, pH 7.4, 0.1% bacitracin). Membranes were pelleted by high speed centrifugation (30,000×g, 15 min 4° C.), homogeniser again in ice-cold hypotonic buffer and collected again by high speed centrifugation (30,000×g, 15 min, 4° C.). […] Samples were incubated at room temperature for 2hr. Incubations were terminated by centrifugation (4 min) and pellets collected. Radioactivity was measured for 1 min in a g counter.

Substance	rank of potency for the Y7 receptor	affinity of the protein encoded by the hy7 cDNA (radio-ligand binding) (COS-6 or HEX (293) cells transiently expressing recombinant Y7 receptor protein, FIG. 2)
[2-36]PYY: NPY-related peptide competitor, PYY fragment 2-36	PYY>NPY>[2-36]PYY>[3-36]NPY>[13-36]NPY>>(Leu31, Pro34)NPY>PP	–
[3-36]NPY: NPY-related peptide competitor, NPY fragment 3-36	PYY>NPY>[2-36]PYY>[3-36]NPY>[13-36]NPY>>(Leu31, Pro34)NPY>PP	–
[13-36]NPY: NPY-related peptide competitor, NPY fragment 13-36	PYY>NPY>[2-36]PYY>[3-36]NPY>[13-36]NPY>>(Leu31, Pro34)NPY>PP	–
(Leu31, Pro34)NPY: NPY-related peptide competitor, NPY analogue with Leu31 and Pro34	PYY>NPY>[2-36]PYY>[3-36]NPY>[13-36]NPY>>(Leu31, Pro34)NPY>PP	–
Neuropeptide Y [NPY]	PYY>NPY>[2-36]PYY>[3-36]NPY>[13-36]NPY>>(Leu31, Pro34)NPY>PP	–
PYY: peptide YY, 36 amino acids, member of the pancreatic polypeptide family	PYY>NPY>[2-36]PYY>[3-36]NPY>[13-36]NPY>>(Leu31, Pro34)NPY>PP	highest affinity
